Source: patent publication US8759402B2, “Method to inhibit ischemia and reperfusion injury” (Radical Therapeutix, priority 2002, dated 2014)

What was measured:
isolated rabbit heart = assay: Langendorff perfusion, global ischemia/reperfusion of isolated rabbit heart (infarct size by TTC, CK release)
Method: The global ischemia protocol was adapted from that of Tsuchida et al. (1994). All procedures were approved by the Animal Care and Use Committee at The Scripps Research Institute (TSRI). To obtain isolated hearts, hearts were excised from an anesthetized mammal such as a rabbit and quickly cannulated onto the Langendorff perfusion apparatus. The heart is perfused with Krebs-Ringer buffer for 15 minutes before ischemia/reperfusion episodes. No-flow ischemia is maintained for 30 minutes and reperfusion is accomplished by restoring flow for 15 minutes (unless otherwise indicated). Ischemic preconditioning can be induced by three 5 minute cycles of no-flow ischemia and reperfusion immediately preceding the regular ischemia and reperfusion. In brief, the heart was excised from the anesthetized rabbit and quickly cannulated onto the Langendorff perfusion apparatus. The heart was perfused with Krebs-Ringer buffer for 15 minutes before ischemia/reperfusion episodes. No-flow ischemia was maintained for 30 minutes and reperfusion was accomplished by restoring flow for 15 minutes (unless otherwise indicated). Ischemic preconditioning was induced by three 5 minute cycles of no-flow ischemia and reperfusion immediately preceding the regular ischemia and reperfusion. The efficacy of these interventions was verified by measurement of creatine kinase (CK) release and infarct size measurement using triphenyl tetrazolium chloride (TTC) staining (Pain et al., 2000; Downey, 2001). The measurement of infarct size was essentially identical to that detailed by Downey (2001) except for the method of quantitation. After the TTC reaction, the heart slices were scanned into TIFF files and analyzed with Adobe Photoshop 5.5. The images were digitally manipulated in an identical manner to ensure equivalent outcome. […] The histogram counts of red and white were recorded. The percent infarction was calculated as white counts divided by the sum of red plus white counts.

[1] = system: mitochondrial-encoded proteins (CO-1, ND3); assay: Western blotting of mitochondrial-encoded proteins after CAP perfusion (Example II); set-up: species or system rat; conditions: perfusion with CAP for 30 minutes
Method: Error bars represent standard deviation. […] Mitochondria (50 μg) were resolved by SDS-PAGE and transferred to PVDF nylon membranes. […] Detection was performed with ECL (Amersham, Piscataway, N.J.). Non-saturated autoradiographs were quantitated with Scion/NIH Image.

[2] = system: rabbit heart (circumflex coronary artery occlusion); assay: Rabbit circumflex coronary artery occlusion and reperfusion; assay type: in vivo; conditions: n=6
Method: (A) At 4 hours, hearts were removed, immediately frozen and blindly assessed for infarct size. The decrease in left ventricular pressure from baseline was assessed after ischemia. […] Animals were mechanically ventilated with room air via a tracheostomy, and the heart was exposed by a median sternotomy. A suture ligature was passed around the circumflex coronary artery so it could be snare-occluded and reperfused as described in Gottlieb et al. (1994). Ischemia was induced by snare occlusion and confirmed by visual inspection. After 30 minutes of ischemia, the ligature was released and the heart was reperfused for 4 hours. The heart was then rapidly excised, and the normal area of perfusion marked by infusion of acridine orange. The heart was frozen and assessed for infarct size the following day using TTC staining. Infarct size as a percentage of the area at risk (demarcated by acridine orange staining) was determined by an observer blinded to the treatment status of the hearts.

[3] = system: mitochondrial respiratory chain Complex I, II, IV; assay: Oxygen consumption (respiration) of mitochondria from perfused rat hearts; conditions: hearts perfused with chloramphenicol for 30 minutes
Method: FIG. 4. […] (B) Mitochondrial respiration was measured by polarography. […] Error bars represent standard deviation. […] Hearts were rapidly minced in ice-cold MSE buffer (in mmol/L, mannitol 220, sucrose 70, EGTA 2, MOPS 5 (pH 7.4), and taurine 2 supplemented with 0.2% fatty acid-free bovine serum albumin (BSA)). Heart tissue was homogenized in MSE with a Polytron type tissue grinder at 11,000 rpm for 2.5 seconds followed by 2 quick strokes at 500 rpm with a loose fit Potter-Elvehjem tissue grinder. The homogenate was centrifuged at 500 g twice for 5 minutes, saving the supernatant. Mitochondria were pelleted from the supernatant by centrifugation at 3000 g twice, and the pellet was rinsed with MSE buffer. The supernatant was saved as crude cytosol. The final pellet was rinsed and resuspended in 50 μl Incubation Medium (in mmol/L, mannitol 220, sucrose 70, EGTA 1, MOPS 5 (pH 7.4), taurine 2, MgCl2 10, and KH2PO4 5, supplemented with 0.2% fatty acid-free BSA) (Scholte et al., 1997). Mitochondria were incubated for 15 minutes on wet ice and protein concentration was determined with BSA as a standard by a Bradford assay. All work was performed on wet ice at 0° C. Oxygen consumption was measured at 30° C. with a Clark type oxygen electrode (Instech) in 600 μl KCl respiration buffer (in mmol/L: KCl 140, EGTA 1, MOPS 10 (pH 7.4), MgCl2 10, and KH2PO4 5, supplemented with 0.2% fatty acid-free BSA) (Scholte et al., 1997; Chance et al., 1961; McKee et al., 1990). Complex II activity was measured using 200 μg mitochondria with succinate, 5 mM, as a substrate. […] For each complex the ADP-stimulated respiration rate (state 3) was measured after the addition of 2 mM ADP; the ADP-independent respiration rate, oligomycin-insensitive (state 4) was measured after the addition of 2 μM oligomycin; and the maximal respiration rate was measured after uncoupling the mitochondria with 2 μM FCCP. Rates were calculated as nA O2/min/mg protein after subtracting the rate that was insensitive to the inhibitors antimycin A, 1 μM, for complex III, and KCN, 1 mM, for complex IV.

[4] = system: cytochrome oxidase subunit I; assay: Immunodetection of mitochondrial-encoded proteins after CAP infusion (Example I); set-up: species or system rabbit; conditions: CAP infusion for as little as 15 minutes
isolated rat hearts = assay: Langendorff perfusion, no-flow ischemia/reperfusion of isolated rat heart (infarct size by TTC, CK release, coronary flow); conditions: for coronary flow after ischemia: treated hearts, reperfusion; for CK release (in words) / infarct size (in words): cimetidine 200-600 μM, sulfaphenazole 10 μM and 300 μM; for infarct size (in words): 2 hours reperfusion
Method: FIG. 2. […] Adult rat hearts were perfused in Langendorff mode for 20 minutes, then subjected to 30 minutes no-flow ischemia followed by a 2 hour reperfusion. […] (A) After 2 hours of reperfusion, hearts were frozen and assessed for infarct size using TTC. Coronary effluent was collected for 15 minutes immediately before and after ischemia and assessed for CK release. […] All procedures were approved by the Animal Care and Use Committee at The Scripps Research Institute (TSRI). […] No-flow ischemia was maintained for 30 minutes and reperfusion was accomplished by restoring flow for 15 minutes for creatine kinase (CK) release determination and dihydroethidium (DHE) staining, or 120 minutes for infarct size determination by triphenyl tetrazolium chloride (TTC) staining. Measurement of CK activity was performed using the CK EC 2.7.3.2 UV-Test kit (Sigma) as per the manufacturer's instructions. The measurement of infarct size after TTC staining was performed as described in Example 1.

[5] = system: p46 (EF-Tumt) phosphorylation; assay: Phosphorylation of mitochondrial p46 (EF-Tumt) with [γ-32P]ATP in the presence of kinase inhibitors; assay type: biochemical, rabbit
Method: For phosphorylation reactions, 100 μg of purified mitochondria was incubated in MSE buffer supplemented with 25 mmol/L HEPES-KOH [pH 7.5], 10 mmol/L magnesium acetate, 10 μmol/L ATP (cold), and 10 μCi [γ-^32P]ATP for 30 minutes at 30° C. with or without 250 μg of cytosol. The reaction mixture was subsequently centrifuged for 5 minutes at 10,000 g. The mitochondrial pellet was resuspended in 500 μL of MC buffer and washed twice. The mitochondrial proteins were resolved on a 12% polyacrylamide gel, transferred to nitrocellulose, and detected by autoradiography.
For protein kinase inhibition experiments, cytosols were incubated with the inhibitors at the indicated concentrations, then mitochondria were added and the reaction was initiated with the addition of ATP. Serine/threonine kinase inhibitors (Calbiochem, catalog No. 539572) included bisindolylmaleimide I, 10 nmol/L; H-89, 48 μmol/L; protein kinase G inhibitor, 86 μmol/L; ML-7, 0.3 μmol/L; KN-93, 0.37 μmol/L; and staurosporine, 10 nmol/L. Tyrosine kinase inhibitors (Calbiochem, catalogue No. 657021) included genistein, 25 μmol/L; PP2, 5 nmol/L; AG490, 15 μmol/L; AG1296, 1 μmol/L; and AG1478, 3 nmol/L.

CYP2D6 = CYP2D6 (Homo sapiens, UniProt P10635); assay: AMMC demethylation by recombinant CYP2D6; assay type: biochemical; conditions: recombinant system
[6] = system: H9c2 and neonatal rat cardiomyocytes; assay: Hydrogen peroxide-induced apoptosis and superoxide production in cells
[7] = system: AMMC demethylase (cytochrome P450) in rat liver microsomes; assay: Fluorometric cytochrome P450 assay, AMMC demethylation in rat liver microsomes; assay type: biochemical; conditions: male, Sprague-Dawley, pH 7.4, probe AMMC (30 μM), AMMC substrate, read-out: IC50, inhibition of AMMC demethylation
Method: Microsomes were isolated from rat livers (Sprague-Dawley, male, 6-8 weeks) by differential centrifugation as described by Walles and coworkers (2001). Homogenized tissue was centrifuged at 11,000 g for 30 minutes at 4° C. The supernatant was further centrifuged at 170,000 g for 60 minutes at 4° C. The resulting pellet was resuspended in KCl buffer and centrifuged at 200,000 g for 40 minutes at 4° C. The microsomal fraction was then transferred into Tris-sucrose buffer (0.25 M sucrose, 20 mM Tris buffer, 5 mM EDTA). Protein concentrations were determined by bicinchoninic acid micro assay (Pierce). Microsomal solutions were aliquoted and stored at −80° C. until further use.

CYP2D2 = target: T1, CYP2D2 (Rattus norvegicus, UniProt P10634); assay: AMMC demethylase activity in CYP2D2 supersomes; conditions: sulfaphenazole 50 μM
T1 sequence (P10634 1-500): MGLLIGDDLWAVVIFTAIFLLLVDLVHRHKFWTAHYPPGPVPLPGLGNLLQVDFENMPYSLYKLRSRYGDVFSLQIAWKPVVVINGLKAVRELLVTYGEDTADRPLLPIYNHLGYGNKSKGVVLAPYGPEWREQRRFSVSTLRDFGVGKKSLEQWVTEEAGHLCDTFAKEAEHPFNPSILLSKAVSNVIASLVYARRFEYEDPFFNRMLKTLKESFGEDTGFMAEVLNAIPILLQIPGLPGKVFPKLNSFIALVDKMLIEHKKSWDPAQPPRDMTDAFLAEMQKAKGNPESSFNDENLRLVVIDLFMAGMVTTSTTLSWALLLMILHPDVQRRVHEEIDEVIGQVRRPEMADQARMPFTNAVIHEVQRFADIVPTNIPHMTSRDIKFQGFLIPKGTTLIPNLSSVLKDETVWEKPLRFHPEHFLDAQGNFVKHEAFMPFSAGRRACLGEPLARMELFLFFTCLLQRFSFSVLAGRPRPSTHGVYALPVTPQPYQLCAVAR
Method: Effect of sulfaphenazole on AMMC demethylase activity. (A) The rate of AHMC product formation was assessed and the IC50 value was calculated. (B) AHMC product formation was measured over 2 hours in baculovirus-infected CYP2D2-specific supersomes in the presence or absence of sulfaphenazole (50 μM) (SUL).
Assays were carried out in parallel at 37° C. in fluorescence detector microtiter plates (96 well). CYP2D2 supersomes, substrates (AMMC), product standard 3-[2-(N,N-diethyl-N-methylamino)ethyl-]-7-hydroxy-4-methylcoumarin (AMHC), and the NADPH generating system were obtained from BD Gentest (Woburn, Mass.). Reaction components were pre-warmed to 37° C. The assay was initiated by addition of the NADPH-regenerating system to substrate concentrations selected to give linear time-course profiles (AMMC, 30 μM) and rat liver microsomal protein (10 mg/ml) isolated as described above in phosphate buffer (50 mM, pH 7.4) (final organic co-solvent concentration, 0.1% acetonitrile) in the presence or absence of sulphaphenazole (50 μM AMMC). Reaction progression was followed by continuously monitoring AHMC formation (λex=390 nm and λem=460 nm) using a SPECTRAmax™ GEMINI dual-scanning microplate spectrofluorometer for 1 hour at 37° C. The residual absorption due to NADPH was compensated for throughout the analysis. Each assay was performed in at least triplicate. […]

[8] = mitochondria incubated with control or ischemic cytosols, H-89 48 μmol/L, genistein 25 μmol/L

Chain of CYP2D6 (P10635 whole entry): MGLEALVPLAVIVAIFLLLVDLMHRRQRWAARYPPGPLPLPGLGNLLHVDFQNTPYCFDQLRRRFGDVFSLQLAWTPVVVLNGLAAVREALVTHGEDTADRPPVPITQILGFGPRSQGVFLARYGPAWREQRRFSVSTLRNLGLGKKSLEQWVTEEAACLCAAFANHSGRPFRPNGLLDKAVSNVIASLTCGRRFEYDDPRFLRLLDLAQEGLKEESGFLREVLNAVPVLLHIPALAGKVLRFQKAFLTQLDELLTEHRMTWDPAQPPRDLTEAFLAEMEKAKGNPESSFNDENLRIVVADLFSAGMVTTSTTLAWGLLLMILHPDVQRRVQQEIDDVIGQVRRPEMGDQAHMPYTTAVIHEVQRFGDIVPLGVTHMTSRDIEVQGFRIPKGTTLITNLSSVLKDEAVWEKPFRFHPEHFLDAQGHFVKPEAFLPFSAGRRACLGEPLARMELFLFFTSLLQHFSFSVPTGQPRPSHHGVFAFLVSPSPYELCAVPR

`O=C(N[C@H](CO)[C@H](O)c1ccc([N+](=O)[O-])cc1)C(Cl)Cl` [CAP, chloramphenicol] was tested, and the “infarct size after ischemia and reperfusion” value (isolated rabbit heart; 100 μg/mL CAP in buffer throughout: 15 min stabilization, 30 min global ischemia, 2 h reperfusion, mean±SEM, untreated 64.1 (±4.1)) was 43.1 (±6.4), the infarct size (isolated rabbit heart; CAP administered only in the last 15 minutes of the 2 hour reperfusion (control for TTC interference)) was 69.2±5.7 and the “CK release after global ischemia” value (isolated rabbit heart; CAP pretreatment, 100 μg/mL) was “reduced”. The “levels of mitochondrial-encoded proteins and respiratory chain activity” value [1] was “not sufficient to alter”, the “infarct size, of the area at risk” value ([2]; CAP 20 mg/kg i.v. 30 min before 30 min occlusion, 4 h reperfusion, untreated 49.3 ±17.7) was 18.3% and the “post-ischemic hypotension (decrease in left ventricular pressure from baseline)” value ([2]; CAP 20 mg/kg i.v., untreated −34.2±2.3) was −13.3±2.2 mm H2O. The “Complex I State 4” value ([3]; −CAP 13.74 ± 6.33) was 12.09 ± 4.59 n Atoms O/min/mg, the “Complex II State 4” value ([3]; −CAP 21.70 ± 5.89) was 23.04 ± 7.32 n Atoms O/min/mg and the “Complex II State 3” value ([3]; −CAP 85.47 ± 22.2) was 83.58 ± 14.4 n Atoms O/min/mg. The “Complex IV State 4” value ([3]; −CAP 113.99 ± 21) was 116.89 ± 23 n Atoms O/min/mg, the “Complex I State 3” value ([3]; −CAP 158.57 ± 32) was 162.99 ± 31 n Atoms O/min/mg and the “Complex IV State 3” value ([3]; −CAP 209.85 ± 40) was 201.09 ± 23 n Atoms O/min/mg. For the same compound, the “immunodetection of mitochondrial-encoded cytochrome oxidase I” value [4] was “near-complete loss”, the infarct size (isolated rat hearts; CAP 300 μm before and after global no-flow ischemia (I/R+CAP), 30 min ischemia, 2 h reperfusion, SEM, n=5, untreated 43.2±3.2%) was 16.0±3.6% and the “CK released after ischemia” value (isolated rat hearts; CAP administered prior to ischemia, SEM, n=5, untreated 2.25±0.28) was 0.27±0.13 U/15 min. The infarct size (isolated rat hearts; chloramphenicol administered immediately after ischemia (at reperfusion), n=5, untreated 43.2%) was 21.7%, the “reduction of infarct size” value (isolated rat hearts; pretreatment of hearts prior to ischemia and reperfusion (summary)) was “about 90%” and the “coronary flow after ischemia” value (isolated rat hearts) was “prevent the associated drop in coronary flow”.
With `O=S(=O)(NCCNC/C=C/c1ccc(Br)cc1)c1cccc2cnccc12` [H-89] the “phosphorylation of p46” value [5, 8] was “did not affect”.
In the case of `CN/C(=N/CCSCc1nc[nH]c1C)NC#N` [cimetidine], the “CK release (in words)” value (isolated rat hearts) is reported as “reduced CK release”, the “infarct size (in words)” value (isolated rat hearts) is reported as “dose-dependent reduction” and the “coronary flow after ischemia” value (isolated rat hearts) is reported as “prevent the associated drop in coronary flow”.
In the case of `O=c1c(-c2ccc(O)cc2)coc2cc(O)cc(O)c12` [genistein], the “phosphorylation of p46” value ([5]; mitochondria from an ischemic heart incubated with genistein, no cytosol) is reported as “able to inhibit” and the “phosphorylation of p46” value [5, 8] is reported as “reduced phosphorylation”.
With `Nc1ccc(S(=O)(=O)Nc2ccnn2-c2ccccc2)cc1` [sulfaphenazole] the “inhibition of CYP2D6 (AMMC demethylation)” value (CYP2D6) was “not inhibited”, the “rescue from hydrogen peroxide-induced apoptosis and superoxide production” value [6] was “rescued” and the IC50 at 1 h [7] was 500 nM. The “inhibition of CYP2D2 activity (AMMC demethylase)” value (CYP2D2) was “did not appear to significantly inhibit”, the “CK release (in words)” value (isolated rat hearts) was “significant reduction” and the “infarct size (in words)” value (isolated rat hearts) was “significant reduction”. For the same compound, the “coronary flow after ischemia” value (isolated rat hearts) was “prevent the associated drop in coronary flow”.
In the case of gentamicin sulfate, the cardioprotection (isolated rat hearts; gentamicin in perfusion buffer) is reported as “not cardioprotective”.
